# From patent US20210244700A1, “COMPOSITIONS AND METHODS FOR PREVENTING AND/OR REDUCING ISCHEMIA AFTER SURGICAL INCISIONS” (Duke University, priority 2018, published 2021)
# Entries after “also recorded” stand apart in the source; their conditions may differ.
# Experiments:
# [1] = cited from earlier work
# [2] = Complete blood counts after 14 total days of treatment; type: in vivo, rat
# Experimental: (§1) The animals were treated according to institutional animal care and use committee guidelines. Animals were double-housed for the preoperative period, then single-housed in the immediate postoperative period to protect flap integrity. Isoflurane anesthesia was used for all operations and daily intraperitoneal injections. Elizabethan collars were placed on rats to prevent ingestion of the topical solution after application. No dressing was used over the topical application site due to absorption. Animals were observed daily for side effects, including wound infections or dehiscence. Weights were taken on the day of surgery and on postoperative day 7. Blood samples were obtained on postoperative day 7 immediately before the animals were euthanized by means of cardiac puncture to determine hemoglobin, hematocrit, white blood cell count, and platelet count. Animals were euthanized by means of intracardiac potassium chloride on postoperative day 7, and gross necropsies were performed by a veterinarian to assess macroscopic organ changes after 14 total days of treatment.
# CD31+ vessels = experiment: Neovascularization: CD31 immunohistochemistry and hematoxylin and eosin histology of skin flap; type: in vivo, rat
# Experimental: (§2) Tissues from the proximal and distal parts of the flaps were collected on postoperative day 7 and were fixed in 10% paraformaldehyde and embedded in paraffin, with representative sections depicted in FIG. 1. For histologic evaluation and CD31 immunohistochemical staining, sections taken 6 cm from the proximal flap were deparaffinized in xylene and rehydrated in a series of ethanol washes. For detection of CD31+ cells, sections were incubated with anti-mouse CD31 antibody (BD Pharmingen, San Jose, Calif.) at a dilution of 1:200 at 4° C. overnight. For analysis of angiogenesis, the CD31+ vessels in five fields were counted by light microscopy (20×) for each group. A TdT In Situ Cell Death Detection Kit (R&D Systems, Minneapolis, Minn.) was used to compare apoptotic protein expression in sections taken 4 cm from the proximal flap. The ratio of terminal deoxynucleotidyl transferase-mediated dUDP end-labeling-positive cells was calculated according to the manufacturer's protocol. Terminal deoxynucleotidyl transferase-mediated dUDP end-labeling-positive cells were also counted by light microscopy (20×) in 10 fields.
# ischemic skin flap [3] = experiment: Skin flap tissue perfusion, sodium fluorescein injection and IVIS imaging; type: in vivo, rat; settings: postoperative day 7; for percentage of unperfused tissue: intraperitoneal + topical, control 39.9±3.8 percent; for percentage of unperfused tissue / percentage of overall flap perfusion: p<0.001; for percentage of overall flap perfusion: control 31.4±2.3 percent
# Experimental: (§3) After institutional animal care and use committee approval, hairless male rats (8 weeks old; 250 g) were obtained from Charles River Laboratories (Wilmington, Mass.). Six experimental groups of rats (n=24) and three control groups (n=12) underwent skin flap surgery by surgeons blinded to the experimental treatment arm. First, to assess both systemic and topical administration together, four experimental groups (n=16) were administered dimethyloxalylglycine (Cayman Chemical, Ann Arbor, Mich.) both intraperitoneally and topically for a total dose of 6 mg/kg/day (n=4), 12 mg/kg/day (n=4), 24 mg/kg/day (n=4), or 48 mg/kg/day (n=4). Next, to assess topical versus intraperitoneal administration, two experimental groups were administered dimethyloxalylglycine at 48 mg/kg/day either topically (n=4) or intraperitoneally (n=4). Intraperitoneal administration consisted of dimethyloxalylglycine suspension in phosphate-buffered saline (pH 7.4) to a maximum dosage of 10 ml/kg. Topical delivery consisted of administration of dimethyloxalylglycine using dimethylsulfoxide as a delivery vehicle at a maximum dosage of 9 ml/kg undiluted solution. Topical application was performed in the outline of the proposed skin flap. To replicate a short therapeutic course before and after flap surgery, the study was designed to include a 14-day treatment period, with dimethyloxalylglycine administered 7 days before and 7 days after flap surgery (FIG. 1). Because prolyl hydroxylase inhibitors target the HIF pathway […], this design was chosen to allow time for downstream neovascularization.
# (§4) Throughout the same 14-day treatment course, control groups were administered an equal volume of intraperitoneal phosphate-buffered saline (pH 7.4) and topical dimethylsulfoxide. A dorsal pedicle skin flap based on the McFarlane model measuring 3×6 cm was elevated in the areolar tissue plane deep to the panniculus carnosus layer on each rat on treatment day 7. Consistency in flap design was ensured using a model outline for size and shape and positioning according to bony landmarks. After flap elevation, the flap was sutured in place with 4-0 polypropylene. Surgeons were blinded intraoperatively to treatment arm with a random numbers scheme. Seven days after surgery, the animals were euthanized and histologic analysis performed in postmortem tissue specimens.
# (§5) Photographic measurements of necrosis were taken on postoperative days 1, 3, and 7. Flap necrosis was determined grossly by the presence of cyanosis and congestion on postoperative day 1 (FIG. 2) and the presence of scab formation and loss of skin elasticity on subsequent postsurgical days. At 7 days, tissue perfusion was assessed by means of intraperitoneal injection of 1 ml of sodium fluorescein 10% at 60 mg/kg and fluorescent imaging with an in vivo imaging system (IVIS Kinetic; PerkinElmer, Waltham, Mass.) using LIVING IMAGE® software with a 465-nm excitation and green fluorescent protein emission filter. Necrotic area was calculated using ImageJ Software (National Institutes of Health, Bethesda, Md.). Digital photographs and IVIS images were evaluated and analyzed by an investigator blinded to the assigned treatment group.
# apoptotic cells = experiment: Apoptosis by terminal deoxynucleotidyl transferase-mediated dUDP end-labeling staining of skin flap; type: in vivo, rat; settings: 20× magnification, 4 cm from the proximal flap; control 15.1±6.2; p=0.045
# Experimental: as §2
# VEGF = experiment: Tissue VEGF concentration by enzyme-linked immunosorbent assay; type: in vivo, rat; settings: skin flap 6 cm from the proximal flap, postoperative day 7; control 22.0±1.7 pg/ml; p=0.007
# Experimental: Tissue samples were harvested on postoperative day 7 and dissected on ice, submerged in liquid nitrogen, then stored at −80° C. Tissue samples from tissue sections taken at the same distance 6 cm from the proximal flap were then homogenized in lysis buffer containing 100 mM Tris hydrochloride (pH 7.4), 150 mmol sodium chloride, 1% Triton X-100, 0.5% sodium deoxycholate, and 1 μg/ml protease inhibitor cocktail (Sigma Aldrich, St. Louis, Mo.). The samples were centrifuged to pellet the debris, and the supernatants were analyzed following the manufacturer's protocol for a rat tissue extract VEGF enzyme-linked immunosorbent assay kit (Sigma-Aldrich).
# ischemic skin flap [4] = experiment: Skin flap necrosis, rat ischemic dorsal pedicle skin flap (McFarlane) model; type: in vivo; settings: for mean percentage of skin flap necrosis: postoperative day 3; for mean percentage of skin flap necrosis / flap necrosis: intraperitoneal + topical; for mean percentage of skin flap necrosis / postsurgical flap necrosis percentage: control 41.3±3.8 percent; for flap necrosis: postoperative day 7; for flap necrosis / percentage of flap necrosis: control 50.9±3.9 percent; for postsurgical flap necrosis percentage: postsurgical day 3; for percentage of flap necrosis: postsurgical day 7
# Experimental: as §3, §4, §5
# [5] = Side effect monitoring, weights and gross necropsy; type: in vivo, rat
# Experimental: as §1
# HIF-1α = HIF-1α immunohistochemistry of skin flap epidermis; type: in vivo, rat; settings: 4 cm from the proximal flap, postoperative day 7, control 3.5±0.6, p<0.001
# Experimental: For analysis of HIF-1α, sections were taken 4 cm from the proximal flap and incubated with anti-rabbit HIF-1α antibody (Novus Biologicals, Littleton, Colo.) at a dilution of 1:1600. A Discovery Ultra immunohistochemical system (Ventana Medical Systems, Oro Valley, Ariz.) was used for staining with OmniMap anti-Rb horseradish peroxidase and red chromogen was used for detection. HIF-1α-positive nuclei in the epidermis were counted by light microscopy (20×) in five fields. All immunohistochemical measurements were performed by a blinded investigator.
structure (smiles),measurement,setting,value
O=C(O)CNC(=O)c1ncc(-c2cccc(Cl)c2)cc1O [Vadadustat],most common adverse effect in clinical trials,[1],hypertension resulting from polycythemia
COC(=O)CNC(=O)C(=O)OC [dimethyloxalylglycine],mean hemoglobin,"[2]; control 15.1±0.5 g/dl, p=0.3",14.2 ± 1.0 g/dL
same,mean white blood cell count,"[2]; control 18.2±5.6×10^3/p1, p=0.08",10.4±1.6 ×10^3/p1
same,hematocrit,"[2]; control 43.3±1.1 percent, p=0.2",40.8±2.6%
same,platelet count,"[2]; control 1446±218×10^9/liter, p=0.8",1510±247 ×10^9/liter
same,number of CD31-labeled vessels,"CD31+ vessels; per high-power field at 20×, 6 cm from the proximal flap, after 14 total days of treatment, control 8.8±1.2, p=0.004",18.8±2.2
same,neovascularization on hematoxylin and eosin-stained tissue,"CD31+ vessels; skin flap after 14 total days of treatment, versus controls",greater neovascularization
same,dose dependence of tissue perfusion,ischemic skin flap [3]; 6 to 48 mg/kg/day,higher dimethyloxalylglycine doses leading to increased tissue perfusion
same,percentage of unperfused tissue,ischemic skin flap [3]; total 6 mg/kg/day,11.4±1.7%
same,percentage of unperfused tissue,ischemic skin flap [3]; total 12 mg/kg/day,9.4±4.2%
same,percentage of unperfused tissue,ischemic skin flap [3]; total 24 mg/kg/day,4.7±2.6%
same,percentage of unperfused tissue,ischemic skin flap [3]; total 48 mg/kg/day,1.4±0.9%
same,percentage of overall flap perfusion,ischemic skin flap [3]; intraperitoneal alone 48 mg/kg/day,7.2±3.8%
same,percentage of overall flap perfusion,ischemic skin flap [3]; topical alone 48 mg/kg/day,6.9±1.3%
same,number of apoptotic cells per high-power field,apoptotic cells,1.7±0.6
same,tissue VEGF concentration,VEGF,37.1 ± 3.4 pg/mL
same,cyanosis of flaps,"ischemic skin flap [4]; postoperative day 1, treated versus control flaps (FIG. 2: 24 mg/kg/day intraperitoneal and topical)",Decreased cyanosis
same,mean percentage of skin flap necrosis,"ischemic skin flap [4]; total 6 mg/kg/day, p=0.13",30.2±3.9%
same,mean percentage of skin flap necrosis,"ischemic skin flap [4]; total 12 mg/kg/day, p=0.001",12.3±4.5%
same,mean percentage of skin flap necrosis,"ischemic skin flap [4]; total 24 mg/kg/day, p=0.008",20.3±1.8%
same,mean percentage of skin flap necrosis,"ischemic skin flap [4]; total 48 mg/kg/day, p<0.001",7.7±3.1%
same,flap necrosis,"ischemic skin flap [4]; total 6 mg/kg/day, p=0.004",26.7±1.3%
same,flap necrosis,"ischemic skin flap [4]; total 12 mg/kg/day, p=0.002",20.6±7.0%
same,flap necrosis,"ischemic skin flap [4]; total 24 mg/kg/day, p=0.003",25.0±2.5%
same,flap necrosis,"ischemic skin flap [4]; total 48 mg/kg/day, p<0.001",11.6±4.4%
same,postsurgical flap necrosis percentage,"ischemic skin flap [4]; intraperitoneal alone 48 mg/kg/day, p=0.002",14.7±2.6%
same,postsurgical flap necrosis percentage,"ischemic skin flap [4]; topical alone 48 mg/kg/day, p=0.005",18.9±2.8%
same,percentage of flap necrosis,"ischemic skin flap [4]; intraperitoneal alone 48 mg/kg/day, p<0.001",16.3±5.2%
same,percentage of flap necrosis,"ischemic skin flap [4]; topical alone 48 mg/kg/day, p=0.003",25.7±2.3%
same,increase in flap viability,ischemic skin flap [4]; topical application and intraperitoneal administration,nearly threefold increase
same,gross necropsy findings,[5]; after 14 total days of treatment,"no evidence of cardiovascular changes, splenomegaly, or polycythemia; also recorded: no macroscopic organ changes were observed"
same,weights versus control animals,"[5]; experimental day 1 or day 14, all doses",no differences
same,"wound infections, dehiscence, behavioral changes in feeding or activity","[5]; rat, in vivo","No wound infections, dehiscence, or behavioral changes in feeding or activity were observed"
same,number of HIF-1α-stained nuclei per high-power field,HIF-1α,21.0±2.7
O=c1c(-n2ccnn2)c[nH]n1-c1cc(N2CCOCC2)ncn1 [Molidastat],most common adverse effect in clinical trials,[1],hypertension resulting from polycythemia
